Assay results published in patent US8877938B2, “Compounds containing S-N-valeryl-N-{[2′-(1H-tetrazole-5-yl)-biphenyl-4-yl]-methyl}-valine and (2R,4S)-5-biphenyl-4-yl-4-(3-carboxy-propionylamino)-2-methyl-pentanoic acid ethyl ester moieties and cations” (Novartis Pharmaceuticals Corporation, priority 2005, dated 2014).
Like-named read-outs stand apart in the source and are kept apart here.

Columns and labels:
[1] = system: double-transgenic rats (dTGRs) that overexpress both human renin and its substrate, human angiotensinogen
Protocol: (§1) Representative studies are carried out with trisodium [3-((1S,3R)-1-biphenyl-4-ylmethyl-3-ethoxycarbonyl-1-butylcarbamoyl)propionate-(S)-3′-methyl-2′- pentanoyl{2″-(tetrazol-5-ylate)biphenyl-4′-ylmethyl}amino)butyrate] hemipentahydrate, e.g. applying the following methodology: • The antihypertensive and neutral endopeptidase 24.11 (NEP)-inhibitory activities of trisodium [3-((1S,3R)-1-biphenyl-4-ylmethyl-3-ethoxycarbonyl-1-butylcarbamoyl)propionate-(S)-3′-methyl-2′-(pentanoyl{2″-tetrazol-5-ylate)biphenyl-4′-ylmethyl}amino)butyrate] hemipentahydrate is assessed in conscious rats. The blood pressure-lowering effect is evaluated in double-transgenic rats (dTGRs) that overexpress both human renin and its substrate, human angiotensinogen (Bohlender, et al, High human renin hypertension in transgenic rats. Hypertension; 29(1 Pt 2):428-34, 1997). […] The NEP-inhibitory effect of trisodium [3-((1 S,3R)-1-biphenyl-4-ylmethyl-3-ethoxycarbonyl-1-butylcarbamoyl)propionate-(S)-3′-methyl-2′-(pentanoyl{2″-(tetrazol-5-ylate)biphenyl-4′-ylmethyl}amino)butyrate] hemipentahydrate is determined in conscious Sprague-Dawley rats infused with exogenous atrial natriuretic peptide (ANP). Potentiation of plasma ANP levels is used as an index of NEP inhibition in vivo. In both models, trisodium [3-((1S,3R)-1-biphenyl-4-ylmethyl-3-ethoxycarbonyl-1-butylcarbamoyl)propionate-(S)-3′-methyl-2′-(pentanoyl{2″-(tetrazol-5-ylate)biphenyl-4′-ylmethyl}amino)butyrate] hemipentahydrate is administered orally as a powder in gelatin mini capsules. […] Antihypertensive Effect In Vivo
The dTGRs are instrumented with radiotelemetry transmitters for continuous measurement of arterial blood pressure and heart rate. Animals are randomly assigned to vehicle (empty capsule) or treatment (at 2, 6, 20 or 60 mg/kg, p.o.) groups.

[2] = target: neutral endopeptidase 24.11 (NEP) (Rattus norvegicus, UniProt P07861); details: for NEP inhibition in vivo, as reflected by potentiation of plasma ANPir: oral administration, conscious Sprague-Dawley rats infused with exogenous ANP
Sequence of neutral endopeptidase 24.11 (NEP) (P07861 whole entry, the tested form may be a part): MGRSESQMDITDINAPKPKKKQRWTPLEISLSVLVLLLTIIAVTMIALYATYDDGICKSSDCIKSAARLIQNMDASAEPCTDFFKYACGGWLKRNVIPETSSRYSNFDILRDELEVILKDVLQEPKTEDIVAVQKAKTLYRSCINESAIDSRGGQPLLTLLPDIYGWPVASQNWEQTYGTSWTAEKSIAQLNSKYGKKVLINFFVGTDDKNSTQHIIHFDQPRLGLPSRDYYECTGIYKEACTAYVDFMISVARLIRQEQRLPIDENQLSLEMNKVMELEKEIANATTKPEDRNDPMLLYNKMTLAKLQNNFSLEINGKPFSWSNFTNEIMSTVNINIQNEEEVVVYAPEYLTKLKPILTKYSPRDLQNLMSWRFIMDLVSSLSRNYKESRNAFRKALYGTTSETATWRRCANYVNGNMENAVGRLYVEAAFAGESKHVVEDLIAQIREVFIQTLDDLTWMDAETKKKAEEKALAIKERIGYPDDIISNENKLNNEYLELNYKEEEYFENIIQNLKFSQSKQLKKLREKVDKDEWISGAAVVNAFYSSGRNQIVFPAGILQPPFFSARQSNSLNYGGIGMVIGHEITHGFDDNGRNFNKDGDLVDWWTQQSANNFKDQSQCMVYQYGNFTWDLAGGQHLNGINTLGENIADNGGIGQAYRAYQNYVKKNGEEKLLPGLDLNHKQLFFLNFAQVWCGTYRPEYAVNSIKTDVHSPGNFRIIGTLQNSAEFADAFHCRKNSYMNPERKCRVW
Protocol: as §1
Rat ANP(1-28) is infused intravenously at a rate of 450 ng/kg/min in conscious, chronically cannulated, male Sprague-Dawley rats. After one hour of infusion, rats are randomly assigned to one of six groups: untreated control, vehicle (empty capsule) control, or one of four doses of drug (2, 6, 20, or 60 mg/kg, p.o.). ANP infusion is continued for an additional eight hours. Blood samples are collected for measuring plasma ANPir by a commercial enzyme immunoassay kit at −60 min (i.e., before initiating ANP infusion), −30 min (after 30 min of ANP infusion), 0 min (“baseline”; after 60 min of ANP infusion but before dosing with drug or its vehicle), and at 0.25, 0.5,1, 2, 3, 4, 5, 6, 7, and 8 hr post-dosing.

[3] = 2, 6, 20 or 60 mg/kg, p.o., rat ANP(1-28) infused i.v. at 450 ng/kg/min

## trisodium [3-((1S,3R)-1-biphenyl-4-ylmethyl-3-ethoxycarbonyl-1-butylcarbamoyl)propionate-(S)-3′-methyl-2′-(pentanoyl{2″-(tetrazol-5-ylate)biphenyl-4′-ylmethyl}amino)butyrate] hemipentahydrate
[1]; 2, 6, 20 or 60 mg/kg, p.o., baseline 24-hr MAP approximately 170-180 mmHg
  mean arterial pressure (MAP): dose-dependently reduces MAP
[1]; oral administration, conscious dTGRs, a rat model of fulminant hypertension
  antihypertensive effect: dose-dependent and long-lasting antihypertensive effect
[1]; three highest doses (of 2, 6, 20, 60 mg/kg, p.o.)
  MAP, difference from vehicle controls: significantly different from the vehicle controls
[2]; [3]
  plasma ANPir: dose-dependently augments ANPir
  time to augmentation of plasma ANPir after dosing: ≤ 15 min
[2]
  NEP inhibition in vivo, as reflected by potentiation of plasma ANPir: rapidly and dose-dependently inhibits NEP with a long duration of action
[2]; listed as LCZ696
  NEP inhibition in vivo, as reflected by potentiation of plasma ANPir: rapidly and dose-dependently inhibited NEP with a long duration of action
